Measured values reported in US8389276B2 (priority 2001, dated 2013).
Like-named read-outs stand apart in the source and are kept apart here.

Experiments:
[1] = system: primary fibroblasts isolated from Bax/Bak double deficient mice; format: cell-based, mouse
Text: (§1) To study how the apoptotic machinery is regulated, mice deficient in both Bax and Bak have been produced. […] The characteristics of Bax/Bak double deficient mice are described in greater detail in our publications: Lindsten, T., Ross, A. J., King, A., Zong, W. X., Rathmell, J. C., Shiels, H. A., Ulrich, E., Waymire, K. G., Mahar, P., Frauwirth, K., Chen, Y., Wei, M., Eng, V. M., Adelman, D. M., Simon, M. C., Ma, A., Golden, J. A., Evan, G., Korsmeyer, S. J., MacGregor, G. R., and Thompson, C.

wild type immortal cells = test: Death rate of wild type immortalized cells after death stimuli (DAPI staining, FACS); format: cell-based, mouse; conditions: 24 hours, DAPI 1 μg/ml, FIG. 3A
Experimental: (§2) This example relates to determining that immortalized Bax/Bak doubly deficient cells are resistant to wide variety of death stimuli, including BH-3 only proapoptotic proteins. To test whether immortal Bax/Bak double deficient cells behave like primary Bax/Bak double deficient cells in resisting intrinsic cell death stimuli, wild type and Bax/Bak doubly deficient cells were treated with serum deprivation, etoposide (100 μM), staurosporin (4 μM), or brefeldin A (10 μg/ml). 24 hours later, cells were stained with DAPI (1 μg/ml), and death rate determined by FACS. Wild type immortal cells were killed by each of these death stimuli. This is consistent with the findings in the primary MEF cells.

[2] = system: Bax/Bak doubly deficient cells; test: Death rate of Bax/Bak doubly deficient immortalized cells after death stimuli (DAPI staining, FACS); format: cell-based, mouse; conditions: Bax/Bak doubly deficient immortal cells, 24 hours, DAPI 1 μg/ml, FIG. 3A
Experimental: as §2

[3] = system: thymocytes isolated from the Bax/Bak double deficient mice
Text: as §1

[4] = primary fibroblasts from Bax/Bak double deficient mice

C[C@H]1CCC/C=C/[C@@H]2C[C@H](O)C[C@H]2[C@H](O)/C=C/C(=O)O1 [brefeldin A]
resistance to death stimulus [1, 4]: resistant
cell death (death rate by FACS) (wild type immortal cells; brefeldin A 10 μg/ml): killed
cell death (death rate by FACS) ([2]; brefeldin A 10 μg/ml): survived

COc1cc([C@@H]2c3cc4c(cc3[C@@H](O[C@@H]3O[C@@H]5CO[C@@H](C)O[C@H]5[C@H](O)[C@H]3O)[C@H]3COC(=O)[C@H]23)OCO4)cc(OC)c1O [etoposide]
resistance to death stimulus [1, 4]: resistant
cell death (death rate by FACS) (wild type immortal cells; etoposide 100 μM): killed
resistance to induced cell death [3]: resistant
cell death (death rate by FACS) ([2]; etoposide 100 μM): survived

CN[C@@H]1C[C@H]2O[C@@](C)([C@@H]1OC)n1c3ccccc3c3c4c(c5c6ccccc6n2c5c31)C(=O)NC4 [staurosporin]
resistance to death stimulus [1]: resistant
cell death (death rate by FACS) (wild type immortal cells; staurosporin 4 μM): killed
cell death (death rate by FACS) ([2]; staurosporin 4 μM): survived

tharpsigargin
resistance to death stimulus [1, 4]: resistant

tunicamycin
resistance to death stimulus [1, 4]: resistant
